Results as given in patent US20250127695A1, “Use of Branched Medium-Chain Glycerol Ethers as Active Antidandruff Ingredients” (Henkel AG & Co. KGaA, priority 2022, published 2025).

How the values were obtained:
[1] = system: barrier markers (transglutaminase1, filaggrin, decorin, involucrin, and loricrin); assay: gene expression of barrier markers in in vitro tests on artificial skin models; assay type: cell-based; conditions: various concentrations, FIG. 2
From the text: The gene expression of all investigated barrier markers (transglutaminase1, filaggrin, decorin, involucrin, and loricrin) was reduced by the treatment.

[2] = system: interleukin 8
[3] = system: Malassezia furfur; assay: quantitative suspension test of Malassezia furfur; assay type: cell-based; conditions: incubation ≤60 min at 37° C. in a buffer solution, FIG. 1
Description: The efficacy against dandruff was investigated by is of a suspension test. Various formulations were incubated for a certain time (≤60 min) together with the yeast Malassezia furfur, which was present in cell counts of 10^5-10^6 CFU/mL, at 37° C. in a buffer solution.
After incubation, the cell count of the yeast was determined by is of a culture method (growth on Sabouraud Agar). The difference between this value and the respective initial value is a measure of the microbicidal efficacy of the respective anti-dandruff compound.
One of the causes of dandruff formation is the excessive growth of various microorganisms on the scalp. Yeasts of the genus Malassezia play a particularly important role here. The growth-inhibiting effect of various anti-dandruff compounds in this experiment therefore indicates anti-dandruff efficacy (FIG. 1).

| Structure (SMILES) | gene expression of barrier markers (transglutaminase1, filaggrin, decorin, involucrin, loricrin) [1] | release of interleukin 8 (inflammatory marker) [2] | microbicidal efficacy against Malassezia (cell count of the yeast after incubation vs initial value) [3] |
| --- | --- | --- | --- |
| Cc1cc(CC(C)CC(C)(C)C)n(O)c(=O)c1.NCCO (stereo not shown) [Octopirox, Piroctone Olamine] | reduced | does not negatively influence the release of inflammatory markers | – |
| CCCCCCC(C)OCC(O)CO (stereo not shown) [methylheptyl glycerin] | did not lead to a significant decrease in gene expression | – | killing effect on the Malassezia fungus |
